This is an account of results in ChEMBL document CHEMBL4402592, “Targeting Endoplasmic Reticulum α-Glucosidase I with a Single-Dose Iminosugar Treatment Protects against Lethal Influenza and Dengue Virus Infections” (J Med Chem, 2020).

Structures are written as SMILES. Calls of active or inactive are those of the source. The rule behind the calls is not given here.

For this assay, the system named is Influenza A virus. The assay is described as follows: Antiviral activity against Influenza A virus (A/PA/10/2010 (H3N2)) infected in BALB/c mouse assessed as increase in animal survival rate at 10 mg/kg, po administered via gavage starting at 8 hrs post infection and continuing BID for 6 days. The format is functional, organism-based.

On to `CCOC(=O)C1=C[C@@H](OC(CC)CC)[C@H](NC(C)=O)[C@@H](N)C1`, for which the result was Active.
